Molecular target: Cdk7^as (Homo sapiens, UniProt P50613, D92E/F91G)
Assay: in vitro kinase assay on GST-CTD, autoradiography
Format: biochemical

Cdk7^as, sequence (P50613 2-346 F91G/D92E): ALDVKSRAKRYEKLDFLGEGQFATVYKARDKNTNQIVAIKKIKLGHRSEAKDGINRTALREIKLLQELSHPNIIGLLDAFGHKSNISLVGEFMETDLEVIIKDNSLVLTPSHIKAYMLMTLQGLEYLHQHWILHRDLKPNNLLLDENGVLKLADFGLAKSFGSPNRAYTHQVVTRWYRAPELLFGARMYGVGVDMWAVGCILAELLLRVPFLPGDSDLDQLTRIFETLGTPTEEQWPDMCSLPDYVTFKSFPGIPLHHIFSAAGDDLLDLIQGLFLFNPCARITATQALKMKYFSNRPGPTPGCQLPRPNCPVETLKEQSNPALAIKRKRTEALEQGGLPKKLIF
Cdk7^as, sequence (P51946 whole entry partner): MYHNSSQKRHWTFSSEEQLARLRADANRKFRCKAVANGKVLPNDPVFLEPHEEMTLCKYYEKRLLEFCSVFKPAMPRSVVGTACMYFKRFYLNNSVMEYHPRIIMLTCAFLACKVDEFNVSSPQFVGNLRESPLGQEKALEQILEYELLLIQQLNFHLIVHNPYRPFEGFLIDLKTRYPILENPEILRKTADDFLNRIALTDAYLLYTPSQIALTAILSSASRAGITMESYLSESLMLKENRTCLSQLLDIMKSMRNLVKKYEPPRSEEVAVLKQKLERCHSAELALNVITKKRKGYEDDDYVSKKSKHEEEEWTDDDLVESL
Cdk7^as, sequence (P51948 whole entry partner): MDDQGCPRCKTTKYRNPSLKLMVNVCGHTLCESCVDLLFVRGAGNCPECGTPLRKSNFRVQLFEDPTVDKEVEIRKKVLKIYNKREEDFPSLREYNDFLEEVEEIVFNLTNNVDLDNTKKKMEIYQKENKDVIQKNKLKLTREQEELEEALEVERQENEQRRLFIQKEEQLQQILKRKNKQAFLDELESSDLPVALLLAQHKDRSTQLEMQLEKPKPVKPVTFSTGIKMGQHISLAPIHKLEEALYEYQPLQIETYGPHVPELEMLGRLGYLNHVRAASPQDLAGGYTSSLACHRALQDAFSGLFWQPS

Question: With `Cc1cccc(Cc2nn(C(C)(C)C)c3ncnc(N)c23)c1` [3-MB-PP1] as the compound, how does the IC50 read?
Answer: ~10 nM

From PMC5687273 (Cell reports, 2017)
